Test results taken from patent US20160033531A1, “METHOD AND COMPOSITIONS FOR DETECTING BINDING TO THE PREGNANE X RECEPTOR” (ST. JUDE CHILDREN'S RESEARCH HOSPITAL, priority 2013, published 2016).
Marks after values point to notes of the source that are not given here. One block for each compound: values may come before it.

Experiments:
GST-PXRLBD = target: T1, GST-PXRLBD (Homo sapiens, UniProt O75469); assay: Interaction of BODIPY Fl-vindoline with GST-PXRLBD, Kd from specific binding curve; settings: buffer 50 mM Tris, 50 mM KCl, 1 mM CHAPS, 0.1 mg/mL BSA, 0.05 mM DTT, pH 7.5
T1 construct: GST (N)
T1 sequence (O75469 146-433 limits assumed): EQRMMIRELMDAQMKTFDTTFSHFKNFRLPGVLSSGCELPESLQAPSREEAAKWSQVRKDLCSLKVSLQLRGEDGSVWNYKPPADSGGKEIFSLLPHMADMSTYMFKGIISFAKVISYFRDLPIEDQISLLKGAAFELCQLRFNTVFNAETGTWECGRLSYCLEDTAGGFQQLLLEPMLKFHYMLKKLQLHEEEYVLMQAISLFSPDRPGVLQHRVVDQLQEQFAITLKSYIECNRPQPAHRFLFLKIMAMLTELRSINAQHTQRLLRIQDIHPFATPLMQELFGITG
Method: Assay was performed using a buffer solution containing 50 mM Tris, 50 mM KCl, 1 mM CHAPS, 0.1 mg/mL BSA, and 0.05 mM DTT (pH=7.5).

hPXR [1] = target: T2, hPXR (Homo sapiens, UniProt O75469); assay: Invitrogen hPXR TR-FRET binding kit, Fluormone PXR (SXR) Green as probe (published reports); settings: calculated from published data by equation 2
T2 construct: literature Invitrogen
T2 sequence (O75469 1-434): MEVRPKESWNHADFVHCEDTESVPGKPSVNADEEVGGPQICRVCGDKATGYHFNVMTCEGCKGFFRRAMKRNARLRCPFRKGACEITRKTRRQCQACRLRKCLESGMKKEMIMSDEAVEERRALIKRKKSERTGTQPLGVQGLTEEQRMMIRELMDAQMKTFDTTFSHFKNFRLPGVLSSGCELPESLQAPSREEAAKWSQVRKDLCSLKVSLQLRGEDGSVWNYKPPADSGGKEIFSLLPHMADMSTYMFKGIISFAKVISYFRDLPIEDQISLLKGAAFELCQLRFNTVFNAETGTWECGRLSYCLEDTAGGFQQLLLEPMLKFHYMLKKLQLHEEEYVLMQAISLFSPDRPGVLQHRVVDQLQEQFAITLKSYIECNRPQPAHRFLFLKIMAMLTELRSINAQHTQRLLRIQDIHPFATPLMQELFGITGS

hPXR [2] = target: T2, hPXR; settings: cited from earlier work; for Activity (Fluormone PXR (SXR) Green as Probe), % at single concentration: 1000 μM, published report (Lau et al.)
[3] = Solubility of test compound in the TR-FRET assay; settings: 100 μM

Kd (GST-PXRLBD): 0.256 µM
SMILES: CC[C@]12C=CCN3CC[C@@]4(c5ccc(OC)cc5N(C)[C@H]4[C@@](O)(C(=O)OC)[C@@H]1OC(=O)CCC1=[N+]4C(C=C1)Cc1c(C)cc(C)n1[B-]4(F)F)[C@@H]32 (stereo partly drawn) [BODIPY Fl-vindoline, BODIPY FL vindoline]

Ki (hPXR [1]): 1 µM
Solubility in the assay [3]: incomplete solubility
SMILES: Clc1ccccc1C(c1ccccc1)(c1ccccc1)n1ccnc1 [Clotrimazole, clotrimazole]
IC50 (hPXR [2]; values from published reports, read-out: IC50 (Fluormone PXR (SXR) Green as Probe)): 2 µM

SMILES: C[C@@H]1C(=O)O[C@H]2C[C@@]34[C@H]5C[C@@H](C(C)(C)C)[C@]36[C@@H](OC(=O)[C@@H]6O)O[C@@]4(C(=O)O5)[C@]21O [Ginkgolide A, ginkgolide A]
Activity (Fluormone PXR (SXR) Green as Probe), % at single concentration (hPXR [2]): 54% (1000 μM)^g

SMILES: CC1C(=O)OC2C(O)C34C5CC(C(C)(C)C)C36C(OC(=O)C6O)OC4(C(=O)O5)C12O (stereo not drawn) [Ginkgolide B, ginkgolide B]
Activity (Fluormone PXR (SXR) Green as Probe), % at single concentration (hPXR [2]): 48% (1000 μM)^g
